Experimental data as given in patent publication US9783505B2, “Substituted diaminopyrimidyl compounds, compositions thereof, and methods of treatment therewith” (Signal Pharmaceuticals, LLC, priority 2013, dated 2017).

What follows are molecules tested against T1, PKC delta (Homo sapiens, UniProt Q05655) (assay: PKC delta Assay (384-well time resolved fluorescence, IMAP TR-FRET)). Details: selectivity for PKC-theta over PKC-delta.
T1 construct: purchased Invitrogen
Format: biochemical
Description: PKC delta Assay. A 384-well time resolved fluorescence assay was used to monitor PKC delta activity. The PKC delta assay was run in the following assay buffer: 50 mM HEPES pH 7.6, 10 mM MgCl2, 1 mM DTT, 0.01% Triton X-100, 0.01% BSA and 0.1 mM EDTA. To initiate the reaction, 200 nM of Fam-labeled S6-derived peptide (Molecular Devices) and 10 μM of ATP were mixed with 1.5 nM of PKC delta (Invitrogen), for a total assay volume of 25 μL in each well. The assay was incubated at room temperature for 2 hours and terminated using a 60 μL/well mixture of Detection Binding Solution: 70% IMAP Progressive Binding Buffer A, 30% IMAP Progressive Binding Buffer B, 1:600 Progressive Binding Reagent, and 1:400 TR-FRET Tb Donor (Molecular Devices). The assay plates were then incubated overnight at room temperature and read on the Perkin-Elmer Envision Reader.

T1 sequence (Q05655 whole entry): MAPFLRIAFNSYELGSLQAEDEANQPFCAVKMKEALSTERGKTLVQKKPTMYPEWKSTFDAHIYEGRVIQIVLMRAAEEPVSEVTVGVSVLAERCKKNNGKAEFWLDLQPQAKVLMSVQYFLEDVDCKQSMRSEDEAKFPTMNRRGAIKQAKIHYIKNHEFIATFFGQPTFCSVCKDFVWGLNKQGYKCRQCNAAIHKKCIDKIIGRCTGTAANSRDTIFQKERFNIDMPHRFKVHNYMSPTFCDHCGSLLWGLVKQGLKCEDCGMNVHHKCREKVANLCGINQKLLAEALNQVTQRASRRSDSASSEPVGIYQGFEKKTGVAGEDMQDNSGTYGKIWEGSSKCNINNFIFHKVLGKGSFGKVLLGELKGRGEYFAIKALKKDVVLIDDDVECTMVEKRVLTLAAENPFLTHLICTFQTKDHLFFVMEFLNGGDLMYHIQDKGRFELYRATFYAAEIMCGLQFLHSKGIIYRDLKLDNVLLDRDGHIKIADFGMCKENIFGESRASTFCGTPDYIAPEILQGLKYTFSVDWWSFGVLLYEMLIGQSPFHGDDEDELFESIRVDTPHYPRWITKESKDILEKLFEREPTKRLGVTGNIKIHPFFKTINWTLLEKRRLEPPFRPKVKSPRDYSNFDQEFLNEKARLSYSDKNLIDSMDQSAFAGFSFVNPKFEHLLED

| SMILES | Sel. Level (ratio of IC50 PKC-delta/IC50 PKC-theta) |
| --- | --- |
| C[C@]1(O)CC2(C[C@H](Nc3nc(NCCC4C(=O)Nc5ccccc54)ncc3C#N)C2)C1 (stereo partly shown) [Cmpd 301] | F (selectivity of between 20- and 100-fold (selectivity level F)) |
| COCc1noc(CCNc2ncc(C#N)c(N[C@@H]3CC(O)C3(C)C)n2)n1 (stereo partly shown) [Cmpd 236] | H (selectivity level of 5-fold or less (selectivity level H)) |
| CC1(C)[C@@H](Nc2nc(NCCC3C(=O)Nc4ccccc43)ncc2C#N)CCC[C@@H]1O (stereo partly shown) [Cmpd 305] | G (selectivity between 5- and 20-fold (selectivity level G)) |
| CC1(C)C[C@H](Nc2nc(NCCc3cccnc3)ncc2C#N)CC[C@@H]1O [Cmpd 281] | G (selectivity between 5- and 20-fold (selectivity level G)) |
| CC1(C)[C@@H](O)C[C@H]1Nc1nc(NCCc2ccon2)ncc1C#N [Cmpd 228] | G (selectivity between 5- and 20-fold (selectivity level G)) |
| CC1(C)C[C@H](Nc2nc(NCCc3ccccn3)ncc2C#N)CC[C@@H]1O [Cmpd 282] | H (selectivity level of 5-fold or less (selectivity level H)) |
| CC1(C)[C@@H](O)C[C@H]1Nc1nc(NCCc2c[nH]c3ncccc23)ncc1C#N [Cmpd 241] | G (selectivity between 5- and 20-fold (selectivity level G)) |
| CC1(C)[C@@H](C(N)=O)C[C@H]1Nc1nc(NCCC2C(=O)Nc3ccccc32)ncc1C#N (stereo partly shown) [Cmpd 318] | E (selectivity (Sel. Level=ratio of IC50 PKC-delta/IC50 PKC-theta) of >100-fold (selectivity level E)) |

The molecules below were run against T2, His-PKC-theta (Homo sapiens, UniProt Q04759) (assay: PKC-theta Assay (384-well time resolved fluorescence, IMAP TR-FRET)). Details: Table 2; read-out: Act. Level (IC50 in the PKC-theta Assay).
T2 construct: His; purchased Invitrogen
T2 sequence (Q04759 whole entry): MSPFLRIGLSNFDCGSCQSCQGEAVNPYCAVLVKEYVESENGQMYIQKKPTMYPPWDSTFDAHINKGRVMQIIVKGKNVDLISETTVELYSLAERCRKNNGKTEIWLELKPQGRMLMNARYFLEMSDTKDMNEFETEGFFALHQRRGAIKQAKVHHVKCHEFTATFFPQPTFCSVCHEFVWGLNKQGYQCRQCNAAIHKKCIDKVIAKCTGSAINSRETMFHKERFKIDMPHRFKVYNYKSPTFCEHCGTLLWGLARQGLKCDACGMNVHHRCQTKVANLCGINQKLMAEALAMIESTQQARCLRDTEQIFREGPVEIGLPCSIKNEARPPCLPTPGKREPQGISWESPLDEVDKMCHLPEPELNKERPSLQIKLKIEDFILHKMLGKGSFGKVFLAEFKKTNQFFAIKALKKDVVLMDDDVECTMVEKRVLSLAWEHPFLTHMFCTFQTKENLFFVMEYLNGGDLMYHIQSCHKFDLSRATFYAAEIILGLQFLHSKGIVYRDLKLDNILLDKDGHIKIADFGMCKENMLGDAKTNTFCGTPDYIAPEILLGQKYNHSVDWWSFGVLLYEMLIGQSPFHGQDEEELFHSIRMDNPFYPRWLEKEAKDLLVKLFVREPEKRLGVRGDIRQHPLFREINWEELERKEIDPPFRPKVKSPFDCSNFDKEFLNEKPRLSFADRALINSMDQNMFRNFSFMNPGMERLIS
Format: biochemical
In short: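 Enzyme at 142 pM phosphorylated 200 nM Fam-S6 peptide with 10 μM ATP in 50 mM HEPES pH 7.6, 10 mM MgCl2, 1 mM DTT for 2 h at room temperature. Product was detected after overnight incubation with IMAP binding reagent and Tb donor by time-resolved FRET.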

| SMILES | IC50 [nM] |
| --- | --- |
| CC(C)Oc1ccccc1CNc1ncc(C#N)c(N[C@H]2CC[C@@H](O)CC2)n1 [Cmpd 5] | 100 to 800 |
| CC1(C)C[C@H](Nc2nc(NCCc3ccc(F)cc3)ncc2C#N)CC[C@@H]1O [Cmpd 93] | 100 to 800 |
| N#Cc1cnc(NCCc2cccc(Cl)c2)nc1N[C@H]1CC[C@@H](O)CC1 [Cmpd 68] | 100 to 800 |
| CC1(C)[C@@H](O)C[C@H]1Nc1nc(NCCc2cc(C(F)(F)F)cc(C(F)(F)F)c2)ncc1C#N [Cmpd 125] | 100 to 800 |
| CC1(C)C[C@H](Nc2nc(NCCc3ccc(C#N)c(OC(F)(F)F)c3)ncc2C#N)CC[C@@H]1O [Cmpd 144] | 800 to 2000 |
| N#Cc1cnc(NCc2ccccc2-n2cccn2)nc1N[C@H]1CC[C@@H](O)CC1 [Cmpd 21] | 2000 to 10000 |
| CC1(C)C[C@H](Nc2nc(NCCc3cccc(-c4ccccc4)c3)ncc2C#N)CC[C@@H]1O [Cmpd 58] | 800 to 2000 |
| CC1(C)[C@@H](O)C[C@H]1Nc1nc(NCCc2ccccc2C(F)(F)F)ncc1C#N [Cmpd 44] | 100 to 800 |
| Cc1ncc(-c2ccc(CCNc3ncc(C#N)c(N[C@@H]4CC[C@H](O)C(C)(C)C4)n3)cc2)s1 [Cmpd 64] | < 100 |
| N#Cc1cnc(NCc2c(F)cccc2Cl)nc1N[C@H]1CC[C@@H](O)CC1 [Cmpd 16] | 100 to 800 |
| COc1ccccc1CCNc1ncc(C#N)c(N[C@@H]2C[C@H](O)C2(C)C)n1 [Cmpd 85] | 100 to 800 |
| CC1(C)[C@@H](C(N)=O)C[C@H]1Nc1nc(NCCc2ccc(C#N)cc2)ncc1C#N [Cmpd 194] | 100 to 800 |
| N#Cc1cnc(NCc2ccccc2-c2ccccc2)nc1N[C@H]1CC[C@@H](O)CC1 [Cmpd 10] | 100 to 800 |
| N#Cc1cnc(NCCc2ccc(-n3ccnc3)c(F)c2)nc1N[C@H]1CC[C@@H](C(N)=O)CC1 [Cmpd 195] | < 100 |
| COc1cc(CCNc2ncc(C#N)c(N[C@@H]3C[C@H](O)C3(C)C)n2)ccc1O [Cmpd 104] | 2000 to 10000 |
| CC1(C)C[C@H](Nc2nc(NCCc3ccc(S(=O)(=O)C(F)(F)F)cc3)ncc2C#N)CC[C@@H]1O [Cmpd 185] | 100 to 800 |
| CC1(C)C[C@H](Nc2nc(NCCc3ccc(Cl)cc3)ncc2C#N)CC[C@@H]1O [Cmpd 33] | 100 to 800 |
| Cc1nnnn1-c1ccccc1CNc1ncc(C(F)(F)F)c(N[C@H]2CC[C@@H](O)C(C)(C)C2)n1 [Cmpd 24] | 2000 to 10000 |
| CCc1ccc(CCNc2ncc(C#N)c(N[C@@H]3CC[C@H](O)C(C)(C)C3)n2)cc1 [Cmpd 34] | 100 to 800 |
| CC1(C)[C@H](CO)C[C@H]1Nc1nc(NCCc2cccc(Cl)c2)ncc1C#N [Cmpd 76] | < 100 |
| CC1(C)[C@H](CO)C[C@@H]1Nc1nc(NCCc2cccc(Cl)c2)ncc1C#N [Cmpd 75] | 800 to 2000 |
| CC1(C)C[C@H](Nc2nc(NCCc3ccc(S(C)(=O)=O)cc3)ncc2C#N)CC[C@@H]1O [Cmpd 63] | 100 to 800 |
| CC1(C)C[C@H](Nc2nc(NCCc3ccc(-n4cccn4)c(Cl)c3)ncc2C#N)CC[C@@H]1O [Cmpd 181] | < 100 |
| CC(C)(CO)Nc1nc(NCc2cnccc2C(F)(F)F)ncc1C#N [Cmpd 15] | 100 to 800 |
| CC1(C)[C@@H](O)C[C@H]1Nc1nc(NCCc2cccc(Cl)c2)ncc1C#N [Cmpd 86] | < 100 |
| CC1(C)[C@@H](O)C[C@H]1Nc1nc(NCCc2ccc(C#N)c(OC(F)(F)F)c2)ncc1C#N [Cmpd 143] | 800 to 2000 |
| N#Cc1cnc(NCCc2ccc(F)c(Cl)c2)nc1N[C@H]1CC[C@@H](C(N)=O)CC1 [Cmpd 90] | < 100 |
| CC1(C)[C@@H](O)C[C@H]1Nc1nc(NCCc2ccc(C#N)c(Cl)c2)ncc1C#N [Cmpd 142] | 100 to 800 |
| Cc1nnnn1-c1cccc(CCNc2ncc(C#N)c(N[C@@H]3CC[C@H](O)C(C)(C)C3)n2)c1 [Cmpd 169] | 100 to 800 |

Same assay, conditions: read-out: Act. Level (IC50 in the PKC-theta Assay)

| SMILES | IC50 [nM] |
| --- | --- |
| C[C@]1(O)CC2(C[C@H](Nc3nc(NCCC4C(=O)Nc5ccccc54)ncc3C#N)C2)C1 (stereo partly shown) [Cmpd 301] | 100 to 800 |
| COCc1noc(CCNc2ncc(C#N)c(N[C@@H]3CC(O)C3(C)C)n2)n1 (stereo partly shown) [Cmpd 236] | 2000 to 10000 |
| CC1(C)[C@@H](Nc2nc(NCCC3C(=O)Nc4ccccc43)ncc2C#N)CCC[C@@H]1O (stereo partly shown) [Cmpd 305] | 100 to 800 |
| CC1(C)C[C@H](Nc2nc(NCCc3cccnc3)ncc2C#N)CC[C@@H]1O [Cmpd 281] | 800 to 2000 |
| CC1(C)[C@@H](O)C[C@H]1Nc1nc(NCCc2ccon2)ncc1C#N [Cmpd 228] | 800 to 2000 |
| CC1(C)C[C@H](Nc2nc(NCCc3ccccn3)ncc2C#N)CC[C@@H]1O [Cmpd 282] | 2000 to 10000 |
| CC1(C)[C@@H](O)C[C@H]1Nc1nc(NCCc2c[nH]c3ncccc23)ncc1C#N [Cmpd 241] | 800 to 2000 |
| CC1(C)[C@@H](C(N)=O)C[C@H]1Nc1nc(NCCC2C(=O)Nc3ccccc32)ncc1C#N (stereo partly shown) [Cmpd 318] | < 100 |
| CC1(C)C[C@H](Nc2nc(NCCc3cccs3)ncc2C#N)CC[C@@H]1O [Cmpd 185] | 100 to 800 |
| COc1cccc2[nH]cc(CCNc3ncc(C#N)c(N[C@@H]4CC[C@H](O)C(C)(C)C4)n3)c12 [Cmpd 175] | 100 to 800 |
| CC1(C)[C@H](CO)C[C@@H]1Nc1nc(NCc2c[n+]([O-])ccc2C(F)(F)F)ncc1C#N [Cmpd 145] | 800 to 2000 |
| CC1(C)C(Nc2nc(NCc3cncnc3OCCC(F)(F)F)ncc2C#N)C[C@H]1O (stereo partly shown) [Cmpd 77] | < 100 |
| CC1(C)[C@H](CO)C[C@@H]1Nc1nc(NCc2cnccc2C(F)(F)F)ncc1C(F)(F)F [Cmpd 91] | 100 to 800 |
| C[C@]1(O)CC[C@@H](Nc2nc(NCc3cncnc3-c3ccc(F)cc3)ncc2C#N)CC1 [Cmpd 86] | < 100 |
| CC(C)(F)c1ncncc1CNc1ncc(C#N)c(N[C@H]2C[C@@H](CO)C2(C)C)n1 [Cmpd 109] | 100 to 800 |
| Cc1ccc2c(CCNc3ncc(C#N)c(N[C@@H]4CC[C@H](O)C(C)(C)C4)n3)c[nH]c2c1 [Cmpd 174] | 800 to 2000 |
| CC1(C)[C@@H](Nc2nc(NCc3cncnc3-c3ccc(F)cc3)ncc2C#N)C[C@@H]1O [Cmpd 111] | 100 to 800 |
| COc1ncncc1CNc1ncc(C(F)(F)F)c(N[C@@H]2C[C@H](O)C2(C)C)n1 [Cmpd 62] | < 100 |

| SMILES | IC50 [nM] |
| --- | --- |
| CC1(C)C[C@H](Nc2nc(NCc3cncnc3-c3ccc(F)cc3)ncc2C(F)(F)F)CC[C@@H]1O [Cmpd 44] | < 100 |
| COc1cccc2c(CCNc3ncc(C#N)c(NC4CCC(O)CC4)n3)c[nH]c12 (stereo not shown) [Cmpd 166] | 800 to 2000 |
| CC1(C)[C@@H](O)C[C@H]1Nc1nc(NCc2cncnc2-c2ccc(F)cc2)ncc1C(F)(F)F [Cmpd 70] | < 100 |
| CC1(C)[C@@H](CO)C[C@H]1Nc1nc(NCc2c[n+]([O-])ccc2C(F)(F)F)ncc1C#N [Cmpd 53] | < 100 |
| CC1(C)C[C@H](Nc2nc(NCc3cncnc3OCCC(F)(F)F)ncc2C(F)(F)F)CC[C@@H]1O [Cmpd 8] | < 100 |
| CC1(C)[C@@H](O)C[C@H]1Nc1nc(NCCc2ccncc2)ncc1C#N [Cmpd 186] | 800 to 2000 |
| N#Cc1cnc(NCc2cncnc2C(F)(F)F)nc1N[C@H]1CC[C@@H](O)CC1 [Cmpd 96] | 100 to 800 |
| CNC(=O)[C@H]1CC[C@@H](Nc2nc(NCc3cnccc3C(F)(F)F)ncc2C#N)CC1 [Cmpd 68] | < 100 |
| Cc1cc(C(F)(F)F)c(CNc2ncc(C#N)c(N[C@H]3CC[C@@](C)(O)CC3)n2)c[n+]1[O-] [Cmpd 146] | 800 to 2000 |
| CC1(C)C[C@H](Nc2nc(NCc3cncnc3C(F)(F)F)ncc2C(F)(F)F)CC[C@@H]1O [Cmpd 30] | < 100 |
| COC1CC(Nc2nc(NCc3cnccc3C(F)(F)F)ncc2C(F)(F)F)C1(C)C (stereo not shown) [Cmpd 3] | < 100 |
| Cc1ccc(CCNc2ncc(C#N)c(N[C@@H]3CC[C@H](O)C(C)(C)C3)n2)o1 [Cmpd 192] | 100 to 800 |
| CC1(C)[C@H](CO)C[C@H]1Nc1nc(NCc2cnccc2C(F)(F)F)ncc1C(F)(F)F [Cmpd 66] | < 100 |
| CC(C)c1ncncc1CNc1ncc(C#N)c(N[C@@H]2C[C@H](O)C2(C)C)n1 [Cmpd 35] | < 100 |
| Cc1cc(C(F)(F)F)c(CNc2ncc(C(F)(F)F)c(N[C@@H]3CC[C@H](O)C(C)(C)C3)n2)c[n+]1[O-] [Cmpd 55] | < 100 |
| N#Cc1cnc(NCc2cncnc2-c2ccccc2)nc1N[C@H]1CC[C@@H](O)CC1 [Cmpd 52] | < 100 |
| N#Cc1cnc(NCc2cnccc2C(F)(F)F)nc1N[C@H]1CC[C@@H](O)CC1 [Cmpd 75] | < 100 |
| N#Cc1cnc(NCCc2c[nH]c3ccc(F)cc23)nc1N[C@H]1CC[C@@H](C(N)=O)CC1 [Cmpd 178] | < 100 |
